{"source": "patent US20210220356A1", "about": "“DIHYDROPYRIMIDINE DERIVATIVES AND USES THEREOF IN THE TREATMENT OF HBV INFECTION OR OF HBV-INDUCED DISEASES” (Janssen Sciences Ireland Unlimited Company, priority 2018, published 2021)", "key": {"HBV": {"system": "HBV", "test": "HBV inhibitory activity in HepG2.2.15 cells (HBV DNA in culture medium by q-PCR)", "type": "cell-based", "settings": "HepG2.2.15 cells, 40,000 cells/well, 6 days of compound treatment, HBV DNA in culture medium by q-PCR, highest concentration 10 uM; read-out: EC50", "method": "(§1) • HepG2.2.15 (the HepG2.2.15 cell line can be produced by transfection of the HepG2 cell line as described in Sells, Chen, and Acs 1987 (Proc. Natl. Acad. Sci. USA 84: 1005-1009), and the HepG2 cell line is available from ATCC® under number HB-8065™)\n(§2) Seed the cell HepG2.2.15 cells into 96-well plate in 2% FBS culture medium at the density of 40,000 cells/well and 5,000 cells/well for HBV inhibitory activity and cytotoxicity determination, respectively. After seeding, incubate the cell plates at 37° C., 5% CO2 overnight. The next day, medium containing compounds is added to the cell to treat the cells for 6 days with medium refreshed once in the middle of the treatment. 8 dose points with 3 folds dilution of each compound were adopted and the highest concentration of the compounds is 10 uM and 100 uM for HBV inhibitory activity and cytotoxicity determination, respectively.\nThe HBV DAN change in the cell culture medium induced by the compounds is measured by q-PCR method. Briefly, the HBV DNA in the culture medium is extracted using QIAamp 96 DNA Blood Kit according to the manual and then quantified by q-PCR using the primers and probe in the table below.\n(§3) EC50 and CC50 values are calculated by the GRAPHPAD PRISM software."}, "HepG2.2.15 cells": {"system": "HepG2.2.15 cells", "test": "Cytotoxicity determination in HepG2.2.15 cells (CCK-8)", "type": "cell-based", "settings": "HepG2.2.15 cells, 5,000 cells/well, 6 days of compound treatment, CCK-8 absorbance 450 nm, highest concentration 100 uM", "method": "as §1, §2\nAfter 6 days of compounds treatment, add 20 μl CCK-8 reagents to each well of cytotoxicity assay plates, incubate the plate at 37° C., 5% CO2 for 2.5 h and measure the absorbance at 450 nm wavelength, at the same time read the absorbance at 630 nm wavelength as reference.\nas §3"}}, "data": [{"smiles": "CCOC(=O)C1=C(C2CCc3nn(CCC(=O)O)cc3C2)NC(c2nccs2)=NC1c1ccc(F)c(F)c1Cl", "note": "(single isomer, unassigned) [Compound 34c, 3-(5-(6-(2-chloro-3,4-difluorophenyl)-5-(ethoxycarbonyl)-2-(thiazol-2-yl)-3,6-dihydropyrimidin-4-yl)-4,5,6,7-tetrahydro-2H-indazol-2-yl)propanoic acid]", "values": [{"measurement": "EC50", "setting": "HBV", "value": "< 0.0046", "unit": "µM"}, {"measurement": "CC50", "setting": "HepG2.2.15 cells", "value": 14.9, "unit": "µM"}]}, {"smiles": "CCOC(=O)C1=C(C2CCc3nn(CCC(=O)O)cc3C2)NC(c2nccs2)=NC1c1ccc(F)c(F)c1Cl", "note": "(single isomer, unassigned) [Compound 34d, 3-(5-(6-(2-chloro-3,4-difluorophenyl)-5-(ethoxycarbonyl)-2-(thiazol-2-yl)-3,6-dihydropyrimidin-4-yl)-4,5,6,7-tetrahydro-2H-indazol-2-yl)propanoic acid]", "values": [{"measurement": "EC50", "setting": "HBV", "value": 0.146, "unit": "µM"}, {"measurement": "CC50", "setting": "HepG2.2.15 cells", "value": 20.6, "unit": "µM"}]}, {"smiles": "CCOC(=O)C1=C(C2CCc3nn(CCC(=O)O)cc3C2)NC(c2nccs2)=NC1c1ccc(F)c(F)c1C", "note": "(single isomer, unassigned) [Compound 35c, 3-(5-(6-(3,4-Difluoro-2-methylphenyl)-5-(ethoxycarbonyl)-2-(thiazol-2-yl)-3,6-dihydropyrimidin-4-yl)-4,5,6,7-tetrahydro-2H-indazol-2-yl)propanoic acid]", "values": [{"measurement": "EC50", "setting": "HBV", "value": "< 0.0046", "unit": "µM"}, {"measurement": "CC50", "setting": "HepG2.2.15 cells", "value": 14.4, "unit": "µM"}]}, {"smiles": "CCOC(=O)C1=C(C2CCc3nn(CCC(=O)O)cc3C2)NC(c2nccs2)=NC1c1ccc(F)c(F)c1Br", "note": "(single isomer, unassigned) [Compound 36b, 3-(5-(6-(2-Bromo-3,4-difluorophenyl)-5-(ethoxycarbonyl)-2-(thiazol-2-yl)-3,6-dihydropyrimidin-4-yl)-4,5,6,7-tetrahydro-2H-indazol-2-yl)propanoic acid]", "values": [{"measurement": "EC50", "setting": "HBV", "value": 0.0965, "unit": "µM"}, {"measurement": "CC50", "setting": "HepG2.2.15 cells", "value": 11.7, "unit": "µM"}]}, {"smiles": "CCOC(=O)C1=C(C2CCc3nn(CCC(=O)O)cc3C2)NC(c2nccs2)=NC1c1ccc(F)cc1Cl", "note": "(single isomer, unassigned) [Compound 37c, 3-(5-(6-(2-Chloro-4-fluorophenyl)-5-(ethoxycarbonyl)-2-(thiazol-2-yl)-3,6-dihydropyrimidin-4-yl)-4,5,6,7-tetrahydro-2H-indazol-2-yl)propanoic acid]", "values": [{"measurement": "EC50", "setting": "HBV", "value": 0.0222, "unit": "µM"}, {"measurement": "CC50", "setting": "HepG2.2.15 cells", "value": 21.1, "unit": "µM"}]}, {"smiles": "CCOC(=O)C1=C(C2CCc3nn(CCC(=O)O)cc3C2)NC(c2nccs2)=NC1c1ccc(F)cc1Cl", "note": "(single isomer, unassigned) [Compound 37d, 3-(5-(6-(2-Chloro-4-fluorophenyl)-5-(ethoxycarbonyl)-2-(thiazol-2-yl)-3,6-dihydropyrimidin-4-yl)-4,5,6,7-tetrahydro-2H-indazol-2-yl)propanoic acid]", "values": [{"measurement": "EC50", "setting": "HBV", "value": 0.88, "unit": "µM"}, {"measurement": "CC50", "setting": "HepG2.2.15 cells", "value": 18.9, "unit": "µM"}]}, {"smiles": "CCOC(=O)C1=C(C2CCc3nn(CCC(=O)O)cc3C2)NC(c2nccs2)=NC1c1ccc(F)cc1C", "note": "(single isomer, unassigned) [Compound 38b, 3-(5-(5-(Ethoxycarbonyl)-6-(4-fluoro-2-methylphenyl)-2-(thiazol-2-yl)-3,6-dihydropyrimidin-4-yl)-4,5,6,7-tetrahydro-2H-indazol-2-yl)propanoic acid]", "values": [{"measurement": "EC50", "setting": "HBV", "value": 0.667, "unit": "µM"}, {"measurement": "CC50", "setting": "HepG2.2.15 cells", "value": 22.9, "unit": "µM"}]}, {"smiles": "CCOC(=O)C1=C(C2CCc3nn(CCC(=O)O)cc3C2)NC(c2nccs2)=NC1c1ccc(F)cc1C", "note": "(single isomer, unassigned) [Compound 38c, 3-(5-(5-(Ethoxycarbonyl)-6-(4-fluoro-2-methylphenyl)-2-(thiazol-2-yl)-3,6-dihydropyrimidin-4-yl)-4,5,6,7-tetrahydro-2H-indazol-2-yl)propanoic acid]", "values": [{"measurement": "EC50", "setting": "HBV", "value": 0.0146, "unit": "µM"}, {"measurement": "CC50", "setting": "HepG2.2.15 cells", "value": 19.6, "unit": "µM"}]}, {"smiles": "CCOC(=O)C1=C(C2CCc3nn(CCC(=O)O)cc3C2)NC(c2nccs2)=NC1c1ccc(F)cc1Br", "note": "(single isomer, unassigned) [Compound 39c, 3-(5-(6-(2-Bromo-4-fluorophenyl)-5-(ethoxycarbonyl)-2-(thiazol-2-yl)-3,6-dihydropyrimidin-4-yl)-4,5,6,7-tetrahydro-2H-indazol-2-yl)propanoic acid]", "values": [{"measurement": "EC50", "setting": "HBV", "value": 0.0145, "unit": "µM"}, {"measurement": "CC50", "setting": "HepG2.2.15 cells", "value": 11.9, "unit": "µM"}]}, {"smiles": "CCOC(=O)C1=C(C2CCc3nn(CCC(=O)O)cc3C2)NC(c2nccs2)=NC1c1cccc(F)c1Cl", "note": "(single isomer, unassigned) [Compound 40c, 3-(5-(6-(2-Chloro-3-fluorophenyl)-5-(ethoxycarbonyl)-2-(thiazol-2-yl)-3,6-dihydropyrimidin-4-yl)-4,5,6,7-tetrahydro-2H-indazol-2-yl)propanoic acid]", "values": [{"measurement": "EC50", "setting": "HBV", "value": 0.0331, "unit": "µM"}, {"measurement": "CC50", "setting": "HepG2.2.15 cells", "value": 12.5, "unit": "µM"}]}, {"smiles": "CCOC(=O)C1=C(C2CCc3nn(CCC(=O)O)cc3C2)NC(c2nccs2)=NC1c1cccc(F)c1C", "note": "(single isomer, unassigned) [Compound 41b, 3-(5-(5-(Ethoxycarbonyl)-6-(3-fluoro-2-methylphenyl)-2-(thiazol-2-yl)-3,6-dihydropyrimidin-4-yl)-4,5,6,7-tetrahydro-2H-indazol-2-yl)propanoic acid]", "values": [{"measurement": "EC50", "setting": "HBV", "value": 0.292, "unit": "µM"}, {"measurement": "CC50", "setting": "HepG2.2.15 cells", "value": 6.6, "unit": "µM"}]}, {"smiles": "CCOC(=O)C1=C(C2CCc3nn(CCC(=O)O)cc3C2)NC(c2nccs2)=NC1c1cccc(F)c1C", "note": "(single isomer, unassigned) [Compound 41c, 3-(5-(5-(Ethoxycarbonyl)-6-(3-fluoro-2-methylphenyl)-2-(thiazol-2-yl)-3,6-dihydropyrimidin-4-yl)-4,5,6,7-tetrahydro-2H-indazol-2-yl)propanoic acid]", "values": [{"measurement": "EC50", "setting": "HBV", "value": 0.0304, "unit": "µM"}, {"measurement": "CC50", "setting": "HepG2.2.15 cells", "value": 14.4, "unit": "µM"}]}, {"smiles": "CCOC(=O)C1=C(C2CCc3nn(CCC(=O)O)cc3C2)NC(c2nccs2)=NC1c1cccc(F)c1Br", "note": "(single isomer, unassigned) [Compound 42d, 3-(5-(6-(2-bromo-3-fluorophenyl)-5-(ethoxycarbonyl)-2-(thiazol-2-yl)-3,6-dihydropyrimidin-4-yl)-4,5,6,7-tetrahydro-2H-indazol-2-yl)propanoic acid]", "values": [{"measurement": "EC50", "setting": "HBV", "value": 0.0242, "unit": "µM"}, {"measurement": "CC50", "setting": "HepG2.2.15 cells", "value": 12.7, "unit": "µM"}]}, {"smiles": "CCOC(=O)C1=C(C2CCc3nn(CCC(=O)O)cc3C2)NC(c2ncc(F)cc2F)=NC1c1ccc(F)c(F)c1Cl", "note": "(single isomer, unassigned) [Compound 43c, 3-(5-(6-(2-Chloro-3,4-difluorophenyl)-2-(3,5-difluoropyridin-2-yl)-5-(ethoxycarbonyl)-3,6-dihydropyrimidin-4-yl)-4,5,6,7-tetrahydro-2H-indazol-2-yl)propanoic acid]", "values": [{"measurement": "EC50", "setting": "HBV", "value": 0.0059, "unit": "µM"}, {"measurement": "CC50", "setting": "HepG2.2.15 cells", "value": 29.9, "unit": "µM"}]}, {"smiles": "COC(=O)C1=C(C2CCc3nn(CCC(=O)O)cc3C2)NC(c2nccs2)=NC1c1cccc(F)c1Cl", "note": "(single isomer, unassigned) [Compound 44c, 3-(5-(6-(2-Chloro-3-fluorophenyl)-5-(methoxycarbonyl)-2-(thiazol-2-yl)-3,6-dihydropyrimidin-4-yl)-4,5,6,7-tetrahydro-2H-indazol-2-yl)propanoic acid]", "values": [{"measurement": "EC50", "setting": "HBV", "value": 0.0329, "unit": "µM"}, {"measurement": "CC50", "setting": "HepG2.2.15 cells", "value": 36.7, "unit": "µM"}]}, {"smiles": "COC(=O)C1=C(C2CCc3nn(CCC(=O)O)cc3C2)NC(c2nccs2)=NC1c1cccc(F)c1Br", "note": "(single isomer, unassigned) [Compound 45c, 3-(5-(6-(2-Bromo-3-fluorophenyl)-5-(methoxycarbonyl)-2-(thiazol-2-yl)-3,6-dihydropyrimidin-4-yl)-4,5,6,7-tetrahydro-2H-indazol-2-yl)propanoic acid]", "values": [{"measurement": "EC50", "setting": "HBV", "value": 0.0473, "unit": "µM"}, {"measurement": "CC50", "setting": "HepG2.2.15 cells", "value": 32.2, "unit": "µM"}]}, {"smiles": "CCOC(=O)C1=C(C2CCc3nn(C(C)CC(=O)O)cc3C2)NC(c2nccs2)=NC1c1ccc(F)c(F)c1Cl", "note": "(single isomer, unassigned) [Compound 52b, 3-(5-(6-(2-chloro-3,4-difluorophenyl)-5-(ethoxycarbonyl)-2-(thiazol-2-yl)-3,6-dihydropyrimidin-4-yl)-4,5,6,7-tetrahydro-2H-indazol-2-yl)butanoic acid]", "values": [{"measurement": "CC50", "setting": "HepG2.2.15 cells", "value": 5.8, "unit": "µM"}]}]}
